From patent publication US20050159476A1, “Pharmaceutical composition for preventing or treating respiratory disease” (Chugai Seiyaku Kabushiki Kaisha, priority 2002, published 2005)
Read-outs that look alike come from different tables or passages of the source.

Legend:
human A549 cells = experiment: Protective effect against cell injury induced by oxidized LDL in human A549 cells (LDH leakage); format: cell-based; details: for % cell protection as a function of test compound concentration (FIG. 1): test compound added immediately before oxidized LDL, Test Example 2; for inhibition at 3 µM / inhibition at 30 µM: Homo sapiens, oxidized LDL 100 μg/mL, 24 hours, average ± standard error; for inhibition at 3 µM: 3 μmol/L test compound; for inhibition at 30 µM: 30 μmol/L test compound
Description: (§1) Oxidized LDL was prepared by maintaining 1 mg/mL of rabbit LDL at 37° C for 24 hours in PBS (-) containing 10 μmol/L CUSO4.
Human A549 cells used in this test are available under accession number ATCC-CCL-185 and have the properties of type II alveolar epithelial cells (Lieber M, Smith B, Szakal A, Nelson-Rees W, Todaro G., A continuous tumor-cell line from a human lung carcinoma with properties of type II alveolar epithelial cells. Int J Cancer Jan. 15, 1976; 17(1):62-70).
(§2) These cells were dispersed in F12K medium containing 10% FBS and plated on a 24-well plate at 2.5×10^4 cells/500 μL/well. These cells were incubated at 37° C. for 18 hours and then the medium was replaced by F12K medium containing 2% FBS. At this time, 2.5 μL of a solution or a suspension of each test compound in ethanol was added at the concentrations of the test compound of 3 μmol/L and 30 μmol/L in each well.
(§3) After incubation at 37° C. for 6 hours, 50 μL of a suspension of oxidized LDL was added per well at the concentration of oxidized LDL of 100 μg/mL in each well.
(§4) After incubation at 37° C. for 24 hours, 200 μL of the supernatant was collected from each well and the amount of lactate dehydrogenase (LDH) leaked from cells was determined by the SFBC method.
(§5) Further test was carried out in the same manner as the above test with the exception that each test compound was added to the cell culture after incubation for 6 hours following medium replacement and immediately before oxidized LDL was added thereto rather than when the medium was replaced with F12K medium containing 2% FBS.
(§6) Higher LDH levels in the supernatant indicate that greater cell injury is induced by oxidized LDL. Separately, one experiment was carried out using a well in the same manner as the above test with the exception that no test compound was added to the well. The level of LDH in this well was defined as 0% cell protection. In addition, other experiment was carried out using another well without adding either test compound or oxidized LDL but with adding saline instead. The level of LDH in this well was defined as 100% cell protection. These levels of LDH were used for calculating cell protection of each test compound used in the above test.
Probucol and α-tocopherol were tested for comparison with the compounds of the present invention. In this test, the test compounds were added to the cell culture after incubation for 6 hours following medium replacement and immediately before oxidized LDL was added.

[1] = test system: normal human bronchial/tracheal epithelial cells (NHBE w/RA); experiment: Protective effect against cell injury induced by oxidized LDL in normal human bronchial/tracheal epithelial cells (LDH leakage); format: cell-based; details: 24 h, average ± standard error; for inhibition at 3 µM: 3 μmol/L test compound; for inhibition at 30 µM: 30 μmol/L test compound
Description: as §1, §2, §3, §4, §5, §6
This test example was carried out in a similar manner to test example 1 except that human A549 cells were replaced with normal human bronchial/tracheal epithelial cells (NHBE w/RA: BioWhittaker Co.), cell culture medium was changed from F12K medium containing 10% FBS to BEGM® medium, and the replacement of medium was not made.

[2] = read-out: % Cell protection in the case where oxidized LDL was added 6 hrs after adding test compound
[3] = read-out: % Cell protection in the case where oxidized LDL was added immediately after adding test compound

SMILES | % cell protection as a function of test compound concentration (FIG. 1) (human A549 cells) | inhibition at 3 µM [1, 2] [%] | inhibition at 3 µM [1, 3] [%] | inhibition at 30 µM [1, 2] [%] | inhibition at 30 µM [1, 3] [%] | inhibition at 3 µM (human A549 cells; [2]) [%] | inhibition at 3 µM (human A549 cells; [3]) [%] | inhibition at 30 µM (human A549 cells; [2]) [%] | inhibition at 30 µM (human A549 cells; [3]) [%]
Cc1c(C)c2c(c(C)c1O)CC[C@@](C)(CCC[C@H](C)CCC[C@H](C)CCCC(C)C)O2 [α-tocopherol, reference compound] | does not increase or only slowly increases | – | – | – | – | – | – | – | –
CC1(CN)Cc2c(cc(C(C)(C)C)c(O)c2C(C)(C)C)O1 (stereo not drawn) [Compound 5, 2-aminomethyl-4,6-di-t-butyl-5-hydroxy-2-methyl-2,3-dihydrobenzofuran] | – | 6.3 ± 4.5 | 0.8 ± 4.6 | 33.6 ± 1.8 | 48.3 ± 8.1 | 6.4 ± 0.8 | 6.9 ± 3.1 | 96.5 ± 0.5 | 97.1 ± 0.8
CC(C)(C)c1cc2c(c(C(C)(C)C)c1O)CC1(CCSCC1)O2 [Compound 11, 4,6-di-t-butyl-5-hydroxy-2,3-dihydrobenzofuran-2-spiro-4′-tetrahydrothiopyran] | – | 3 ± 3.2 | 7.5 ± 7.6 | 52 ± 2.2 | 40.9 ± 5.3 | 3.5 ± 2.6 | 4.6 ± 2.6 | 99.3 ± 1.1 | 98.5 ± 0.8
CC(C)(C)c1cc2c(c(C(C)(C)C)c1O)CCO2 [Compound 1, 4,6-di-t-butyl-5-hydroxy-2,3-dihydrobenzofuran] | – | 5.9 ± 4.7 | 35.6 ± 16.8 | 74.7 ± 1.4 | 59.2 ± 7.6 | 11.3 ± 1.6 | 40.4 ± 8.3 | 99.6 ± 0.9 | 98.8 ± 0.2
CC(C)(Sc1cc(C(C)(C)C)c(O)c(C(C)(C)C)c1)Sc1cc(C(C)(C)C)c(O)c(C(C)(C)C)c1 [probucol, reference compound] | does not increase or only slowly increases | – | – | – | – | – | – | – | –
CC(C)(C)c1cc2c(c(C(C)(C)C)c1O)CC1(CCCCC1)O2 [Compound 10, 4,6-di-t-butyl-5-hydroxy-2,3-dihydrobenzofuran-2-spiro-1′-cyclohexane] | – | 5.3 ± 2.6 | 13.1 ± 6.4 | 37.3 ± 4.3 | 57 ± 2.5 | -0.7 ± 1.5 | 0.9 ± 1.9 | 97.8 ± 2.1 | 96.9 ± 4.8
CC(C)(C)c1cc2c(c(C(C)(C)C)c1O)CC1(CCCCC1)S2 [Compound 13, 4,6-di-t-butyl-5-hydroxy-2,3-dihydrobenzothiophene-2-spiro-1′-cyclohexane] | – | -3.4 ± 7.1 | -4.8 ± 2.9 | 37.8 ± 0.7 | 49.2 ± 1.7 | 10.8 ± 3.9 | 11.3 ± 3.5 | 98 ± 1 | 97.1 ± 4.3
CC(C)(C)c1cc2c(c(C(C)(C)C)c1O)CC(Cc1ccccc1)(Cc1ccccc1)O2 [Compound 4, 4,6-di-t-butyl-2,2-dibenzyl-5-hydroxy-2,3-dihydrobenzofuran] | – | 12.3 ± 4.3 | 9.1 ± 2.3 | 47.8 ± 1.6 | 53.5 ± 3.1 | 6.1 ± 2.5 | 5.3 ± 2.5 | 94.1 ± 0.4 | 95.3 ± 3.4
Cc1cc2c(c(C)c1O)CC(C)(C)O2 [Compound 15, 5-hydroxy-2,2,4,6-tetramethyl-2,3-dihydrobenzofuran] | – | 45.9 ± 4.5 | 40.8 ± 3.3 | 79.5 ± 6.4 | 70.6 ± 4.9 | 30 ± 10.2 | 36.1 ± 14.1 | 100.6 ± 0.9 | 99.6 ± 0.7
CC1(C(=O)O)Cc2c(cc(C(C)(C)C)c(O)c2C(C)(C)C)O1 (stereo not drawn) [Compound 6, 4,6-di-t-butyl-5-hydroxy-2-methyl-2,3-dihydrobenzofuran-2-carboxylic acid] | – | -0.9 ± 1.8 | 0.3 ± 2 | 44.8 ± 3.2 | 30.3 ± 3.1 | 8.5 ± 0.8 | 9.1 ± 1.2 | 65.3 ± 2.9 | 46.7 ± 2.9
